According to US20040109905A1, “Method and composition of anthocyanin-rich berry extracts that prevents or inhibits angiogenesis and helicobacter pylori and acts as a powerful antioxidant that provides various health benefits” (priority 2002, published 2004):

System: H2O2-induced expression of VEGF
Assay: H2O2-induced VEGF expression in HaCaT keratinocytes (ELISA)
Assay type: cell-based, human
Conditions: for VEGF: HaCaT cells, FA 200 nM, catechin 100 nM, rutin 1 μM, α-tocopherol 10 μM for 12 hours, then H2O2 150 μM for 12 hours, Mean±SD of three experiments; for effect on H2O2 (oxidant)-inducible VEGF expression, in words: human keratinocytes
Protocol: The cells used for the test were immortalized HaCaT human keratinocytes grown in Dulbecco's modified Eagle's medium (provided by Life Technologies of Gaithersburg, Md.) and supplemented with 10% fetal bovine serum, 100 U/mL penicillin and 100 μg/mL streptomycin.
Solutions incorporating berry extracts or GSPE were prepared fresh in dimethyl sulfoxide at concentrations such that the final concentration of the solvent in cell suspension never exceeded 0.1% prior to cell treatment, the DMSO solutions were passed through a […] filter for sterilization. Respective controls were treated with equal volumes of dimethyl sulfoxide. The test cells were pretreated with the berry solutions.
Test cells were seeded onto multiple well culture-plates. After 24 hours of growth at 80% confluency, the cells were synchronized by culturing them in a serum-deprived medium for 12 hours. Following the synchronization, the cells were treated with H2O2 or TNFα. The berry treatment protocols are described in the legends for Tables 2 through 4 below. A serum-free medium was selected to avoid any possible interaction between the serum components and H2O2. The VEGF level in the medium was determined using a commercially available ELISA kit, marketed by R and D systems of Minneapolis, Minn.
(§1) HaCaT cells were seeded at density 0.45×10^6/well/3 ml. After 24 hr, growth media was chanced to serum free RPMI and berry samples (50 μg/ml) or GSPE (25 μg/ml) were added. After 12 hours, cells were challenged with H2O2 (150 μM). After 12 hours of activation with H2O2, media was collected for ELISA. *p<0.05, higher in response to H2O2 treatment; *lower compared to H2O2 treated cells. Mean±SD of three experiments.
as §1, with “and either pure flavonoids ([…], FA 200 nM; catechin, Cat 100 nM, ruti, rut 1 μM) at concentrations observed in” for “and”, “samples” for “samples (50 μg/ml)”, “a α-tocopherol (10 μM as reference antioxidant)” for “GSPE (25 μg/ml)”

Compound	VEGF	effect on H2O2 (oxidant)-inducible VEGF expression, in words
COc1cc(/C=C/C(=O)O)ccc1O [Ferrulic Acid]	319.19 ± 21.05 pg/mL	suppress oxidant-inducible VEGF expression to some degree
Cc1c(C)c2c(c(C)c1O)CC[C@@](C)(CCC[C@H](C)CCC[C@H](C)CCCC(C)C)O2 [α-tocopherol]	397.10 ± 64.91 pg/mL	did not influence inducible VEGF expression
Catechin	285.89 ± 51.13 pg/mL	suppress oxidant-inducible VEGF expression to some degree
C[C@@H]1O[C@@H](OC[C@H]2O[C@@H](Oc3c(-c4ccc(O)c(O)c4)oc4cc(O)cc(O)c4c3=O)[C@H](O)[C@@H](O)[C@@H]2O)[C@H](O)[C@H](O)[C@H]1O [Rutin]	209.06 ± 59.28 pg/mL	
